{"source": "patent US4358440A", "about": "“Polypeptide and its production and use” (Takeda Chemical Industries, Ltd., priority 1980, dated 1982)", "key": {"[1]": {"conditions": "result in words"}, "[2]": {"experiment": "analgesic action of the novel peptide", "conditions": "result in words; no test described"}, "opiate receptor (brain)": {"system": "opiate receptor (brain)", "experiment": "binding strength with the opiate receptor (brain)", "conditions": "for binding strength with the opiate receptor (brain) relative to human beta-endorphin: times greater than human beta-endorphin; for binding activity relative to morphine: times greater than morphine", "protocol": "The above experiment was carried out by the procedure as described in The Journal of Biological Chemistry, Vol. 254, No. 8, p. 2610 (1979)."}, "[3]": {"conditions": "rats, intracerebral route; cited from earlier work"}, "[4]": {"conditions": "mice, intracerebral route; cited from earlier work"}}, "note": "Read-outs that look alike come from different tables or passages of the source. Residues, ends and D or L forms follow the SMILES beside them.", "data": [{"compound": "CC[C@H](C)[C@H](NC(=O)[C@H](Cc1c[nH]cn1)NC(=O)[C@H](CCCCN)NC(=O)[C@H](CC(C)C)NC(=O)[C@H](CC(C)C)NC(=O)[C@@H](NC(=O)[C@@H](NC(=O)[C@H](CC(C)C)NC(=O)[C@@H]1CCCN1C(=O)[C@H](CCCCN)NC(=O)[C@H](Cc1c[nH]cn1)NC(=O)[C@H](CO)NC(=O)[C@H](CCC(N)=O)NC(=O)[C@H](CCCCN)NC(=O)[C@@H](NC(=O)[C@H](Cc1ccc(O)cc1)NC(=O)[C@@H]1CCCN1C(=O)[C@H](CCCCN)NC(=O)[C@H](CCSC)NC(=O)[C@H](Cc1ccccc1)NC(=O)CNC(=O)CNC(=O)[C@@H](N)Cc1ccc(O)cc1)[C@@H](C)O)[C@@H](C)CC)[C@@H](C)O)C(=O)N[C@H](C(=O)N[C@@H](CC(C)C)C(=O)N[C@@H](CCCCN)C(=O)N[C@@H](CC(N)=O)C(=O)N[C@@H](CCC(=O)O)C(=O)N[C@@H](CCC(N)=O)C(=O)O)[C@@H](C)O", "note": "[Compound (I), H-Tyr-Gly-Gly-Phe-Met-Lys-Pro-Tyr-Thr-Lys-Gln-Ser-His-Lys-Pro-Leu-Ile-Thr- Leu-Leu-Lys-His-Ile-Thr-Leu-Lys-Asn-Glu-Gln-OH] (H-YGGFMKPYTKQSHKPLITLLKHITLKNEQ-OH)", "values": [{"measurement": "toxicity", "setting": "[1]", "value": "very low toxicity"}, {"measurement": "analgesic action", "setting": "[2]", "value": "excellent analgesic action"}, {"measurement": "binding strength with the opiate receptor (brain) relative to human beta-endorphin", "setting": "opiate receptor (brain); with the addition of sodium", "value": "about 3.05 times"}, {"measurement": "binding activity relative to morphine", "setting": "opiate receptor (brain); with the addition of sodium", "value": "about 3.74 times"}, {"measurement": "binding strength with the opiate receptor (brain) relative to human beta-endorphin", "setting": "opiate receptor (brain); without the addition of sodium", "value": "about 2.71 times"}, {"measurement": "binding activity relative to morphine", "setting": "opiate receptor (brain); without the addition of sodium", "value": "about 4.6 times"}]}, {"compound": "CC[C@H](C)[C@H](NC(=O)[C@H](Cc1c[nH]cn1)NC(=O)[C@H](CCCCN)NC(=O)[C@H](CC(C)C)NC(=O)[C@H](CC(C)C)NC(=O)[C@@H](NC(=O)[C@@H](NC(=O)[C@H](CC(C)C)NC(=O)[C@@H]1CCCN1C(=O)[C@H](CCCCN)NC(=O)[C@H](Cc1c[nH]cn1)NC(=O)[C@H](CO)NC(=O)[C@H](CCC(N)=O)NC(=O)[C@H](CCCCN)NC(=O)[C@@H](NC(=O)[C@H](Cc1ccc(O)cc1)NC(=O)[C@@H]1CCCN1C(=O)[C@H](CCCCN)NC(=O)[C@H](CCSC)NC(=O)[C@H](Cc1ccccc1)NC(=O)CNC(=O)CNC(=O)[C@H](Cc1ccc(O)cc1)NC(C)=O)[C@@H](C)O)[C@@H](C)CC)[C@@H](C)O)C(=O)N[C@H](C(=O)N[C@@H](CC(C)C)C(=O)N[C@@H](CCCCN)C(=O)N[C@@H](CC(N)=O)C(=O)N[C@@H](CCC(=O)O)C(=O)N[C@@H](CCC(N)=O)C(=O)O)[C@@H](C)O", "note": "[salmon endorphin, reference compound] (Ac-YGGFMKPYTKQSHKPLITLLKHITLKNEQ-OH)", "values": [{"measurement": "binding to the opiate receptor", "setting": "opiate receptor (brain); result in words", "value": "in no way binds to the opiate receptor"}]}, {"compound": "beta-endorphin: brain peptide in mammals, a particularly important physiological peptide among the endorphins (YGGFMTSEKSQTPLVTLFKNAIIKNAYKKGE; Beta-endorphin; UniProt P01189 237-267, looked up)", "values": [{"measurement": "analgesic effect", "setting": "[3]", "value": "exerts an analgesic effect"}, {"measurement": "analgesic effect", "setting": "[4]", "value": "exerts an analgesic effect"}]}]}
